US10047050B2, “3,4-di-substituted pyridine compound, methods of using and compositions comprising the same” (ARDEA BIOSCIENCES, INC., priority 2011, dated 2018)

Target: T1, URAT-1 model (Homo sapiens, UniProt Q96S37)
T1 sequence (Q96S37 1-553): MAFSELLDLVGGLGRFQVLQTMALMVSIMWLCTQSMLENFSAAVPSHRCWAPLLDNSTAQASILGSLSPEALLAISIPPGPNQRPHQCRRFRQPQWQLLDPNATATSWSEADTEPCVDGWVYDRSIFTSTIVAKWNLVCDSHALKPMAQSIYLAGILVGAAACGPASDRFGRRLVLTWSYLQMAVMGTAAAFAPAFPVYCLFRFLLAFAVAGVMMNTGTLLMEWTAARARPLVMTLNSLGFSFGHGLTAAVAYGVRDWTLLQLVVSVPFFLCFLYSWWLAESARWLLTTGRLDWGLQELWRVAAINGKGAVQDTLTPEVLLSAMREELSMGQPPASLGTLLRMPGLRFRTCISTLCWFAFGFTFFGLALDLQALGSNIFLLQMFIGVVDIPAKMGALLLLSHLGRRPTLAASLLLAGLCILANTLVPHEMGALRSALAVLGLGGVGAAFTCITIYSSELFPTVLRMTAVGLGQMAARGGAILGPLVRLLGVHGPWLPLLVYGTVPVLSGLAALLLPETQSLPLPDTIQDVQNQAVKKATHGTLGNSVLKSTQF
Assay: URAT1-model assay, 14C-uric acid transport in HEK293/URAT1-model cells
Format: cell-based
Conditions: 125 μM 14C-uric acid, 10 minutes
Experimental: Transfections of HEK293 cells with a model URAT1 construct was performed using L2000 transfection reagent (Invitrogen) as described by the manufacturer. After 24 h the transfected cells were split into 10 cm tissue culture plates and grown for 1 day after which the medium was replaced with fresh growth medium containing G418 (Gibco) at 0.5 mg/ml final concentration. Drug-resistant colonies were selected after approximately 8 days and then tested for ^14C-uric acid transport activity. The HEK293/URAT1-model cells are plated on Poly-D-Lysine Coated 96-well Plates at a density of 125,000 cells per well.
Cells were grown overnight (20-26 hours) at 37° C. in an incubator. Plates were allowed to come to room temperature and media was washed out with one wash of 250 μl of Wash Buffer (125 mM Na Gluconate, 10 mM Hepes ph 7.3). […] Assay Buffer is 125 mM Sodium Gluconate, 4.8 mM Potassium Gluconate, 1.2 mM Potassium phosphate, monobasic, 1.2 mM magnesium sulfate, 1.3 mM Ca Gluconate, 5.6 mM Glucose, 25 mM HEPES, pH 7.3. Plates were incubated at room temperature for 10 minutes then washed 3 times with 50 μl Wash Buffer and 3 times with 250 μl Wash Buffer. Microscint 20 Scintillation Fluid was added and plates were incubated overnight at room temperature to equilibrate. Plates are then read on the TopCount Plate Reader and an EC50 value generated. […]

- EC50: ≤ 50 nM
Structure (SMILES): CC(C)(Sc1ccncc1-c1ccc(C#N)c2ccccc12)C(=O)O [2-((3-(4-cyanonaphthalen-1-yl)pyridin-4-yl)thio)-2-methylpropanoic acid]
